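Where inhibition never reached the appropriate level, the endpoint shown equals the highest concentration tested. Otherwise, values were interpolated linearly from a five-concentration, 48-hour dose response in 96-well plates. The concentration for 50% growth inhibition is given as GI50.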 The source made the active and inactive calls. Rule as the data show it: active = GI50 up to about 1.1 µM and inactive = higher.
How the values were obtained:
Experiment in all cases: NCI tumour cell line growth inhibition, 48 h
786-0 = tested on: 786-0
A498 = tested on: A498
A549 = tested on: A549
ACHN = tested on: ACHN
CAKI-1 = tested on: CAKI-1
COLO 205 = tested on: COLO 205
DLD-1 = tested on: DLD-1
DMS-114 = tested on: DMS-114
DMS-273 = tested on: DMS-273
EKVX = tested on: EKVX
HCT-116 = tested on: HCT-116
HCT-15 = tested on: HCT-15
HL-60 = tested on: HL-60
HOP-18 = tested on: HOP-18
HOP-62 = tested on: HOP-62
HOP-92 = tested on: HOP-92
HT-29 = tested on: HT-29
IGROV-1 = tested on: IGROV-1
K562 = tested on: K562
KM-20L2 = tested on: KM-20L2
KM12 = tested on: KM12
LXFL 529 = tested on: LXFL 529
M14 = tested on: M14
M19-MEL = tested on: M19-MEL
MOLT-4 = tested on: MOLT-4
Malme-3M = tested on: Malme-3M
NCI-H226 = tested on: NCI-H226
NCI-H23 = tested on: NCI-H23
NCI-H460 = tested on: NCI-H460
NCI-H522 = tested on: NCI-H522
OVCAR-3 = tested on: OVCAR-3
OVCAR-4 = tested on: OVCAR-4
OVCAR-5 = tested on: OVCAR-5
OVCAR-8 = tested on: OVCAR-8
RPMI-8226 = tested on: RPMI-8226
RXF 631 = tested on: RXF 631
SF-268 = tested on: SF-268
SF-295 = tested on: SF-295
SF-539 = tested on: SF-539
SK-MEL-28 = tested on: SK-MEL-28
SK-MEL-2 = tested on: SK-MEL-2
SK-MEL-5 = tested on: SK-MEL-5
SK-OV-3 = tested on: SK-OV-3
SN12C = tested on: SN12C
SNB-19 = tested on: SNB-19
SNB-75 = tested on: SNB-75
SNB-78 = tested on: SNB-78
SR = tested on: SR
SW-620 = tested on: SW-620
U-251 = tested on: U-251
UACC-257 = tested on: UACC-257
UO-31 = tested on: UO-31
CCRF-CEM = tested on: CCRF-CEM
HCC 2998 = tested on: HCC 2998
LOX IMVI = tested on: LOX IMVI
RXF 393 = tested on: RXF 393
TK-10 = tested on: TK-10
UACC-62 = tested on: UACC-62

COc1ccc(-c2c(N)[n+]([O-])c3ccccc3[n+]2[O-])cc1OC
GI50 (786-0): > 100 µM (inactive) | GI50 (A498): > 100 µM (inactive) | GI50 (A549): > 100 µM (inactive) | GI50 (ACHN): > 100 µM (inactive) | GI50 (CAKI-1): > 100 µM (inactive) | GI50 (COLO 205): > 100 µM (inactive) | GI50 (DLD-1): > 100 µM (inactive) | GI50 (DMS-114): > 100 µM (inactive) | GI50 (DMS-273): > 100 µM (inactive) | GI50 (EKVX): > 100 µM (inactive) | GI50 (HCT-116): > 100 µM (inactive) | GI50 (HCT-15): > 100 µM | GI50 (HL-60): > 100 µM (inactive) | GI50 (HOP-18): > 100 µM (inactive) | GI50 (HOP-62): > 100 µM (inactive) | GI50 (HOP-92): > 100 µM (inactive) | GI50 (HT-29): > 100 µM (inactive) | GI50 (IGROV-1): > 100 µM (inactive) | GI50 (K562): > 100 µM (inactive) | GI50 (KM-20L2): > 100 µM (inactive) | GI50 (KM12): > 100 µM (inactive) | GI50 (LXFL 529): > 100 µM (inactive) | GI50 (M14): > 100 µM (inactive) | GI50 (M19-MEL): > 100 µM (inactive) | GI50 (MOLT-4): > 100 µM (inactive) | GI50 (Malme-3M): > 100 µM (inactive) | GI50 (NCI-H226): > 100 µM (inactive) | GI50 (NCI-H23): > 100 µM (inactive) | GI50 (NCI-H460): > 100 µM (inactive) | GI50 (NCI-H522): > 100 µM (inactive) | GI50 (OVCAR-3): > 100 µM (inactive) | GI50 (OVCAR-4): > 100 µM (inactive) | GI50 (OVCAR-5): > 100 µM (inactive) | GI50 (OVCAR-8): > 100 µM (inactive) | GI50 (RPMI-8226): > 100 µM (inactive) | GI50 (RXF 631): 86.3 µM (inactive) | GI50 (SF-268): > 100 µM (inactive) | GI50 (SF-295): > 100 µM (inactive) | GI50 (SF-539): > 100 µM (inactive) | GI50 (SK-MEL-28): > 100 µM (inactive) | GI50 (SK-MEL-2): > 100 µM (inactive) | GI50 (SK-MEL-5): > 100 µM (inactive) | GI50 (SK-OV-3): > 100 µM (inactive) | GI50 (SN12C): > 100 µM (inactive) | GI50 (SNB-19): > 100 µM (inactive) | GI50 (SNB-75): 65.9 µM (inactive) | GI50 (SNB-78): > 100 µM (inactive) | GI50 (SR): > 100 µM (inactive) | GI50 (SW-620): > 100 µM (inactive) | GI50 (U-251): > 100 µM (inactive) | GI50 (UACC-257): > 100 µM (inactive) | GI50 (UO-31): > 100 µM (inactive)

COc1ccc(Sc2ccccc2[N+](=O)[O-])cc1
GI50 (A498): 50.7 µM (inactive) | GI50 (A549): 15.2 µM (inactive) | GI50 (CCRF-CEM): 22.8 µM (inactive) | GI50 (COLO 205): 5.69 µM (inactive) | GI50 (DLD-1): 24.8 µM (inactive) | GI50 (DMS-273): 4.98 µM (inactive) | GI50 (EKVX): 37 µM (inactive) | GI50 (HCC 2998): 8.36 µM (inactive) | GI50 (HCT-116): 7.64 µM (inactive) | GI50 (HCT-15): 5.86 µM | GI50 (HL-60): 3.78 µM (inactive) | GI50 (HOP-18): > 100 µM (inactive) | GI50 (HOP-62): 16.6 µM (inactive) | GI50 (HOP-92): 18.7 µM (inactive) | GI50 (HT-29): 4.62 µM (inactive) | GI50 (IGROV-1): 69.8 µM (inactive) | GI50 (K562): 3.32 µM (inactive) | GI50 (KM-20L2): > 10 µM (inactive) | GI50 (KM12): 6.44 µM (inactive) | GI50 (LOX IMVI): 12.9 µM (inactive) | GI50 (LXFL 529): 27.5 µM (inactive) | GI50 (M14): 4.04 µM (inactive) | GI50 (M19-MEL): 7.23 µM (inactive) | GI50 (MOLT-4): 16.1 µM (inactive) | GI50 (Malme-3M): 13 µM (inactive) | GI50 (NCI-H226): 13 µM (inactive) | GI50 (NCI-H23): 31.2 µM (inactive) | GI50 (NCI-H460): 16.8 µM (inactive) | GI50 (OVCAR-3): 12.4 µM (inactive) | GI50 (OVCAR-4): 65.3 µM (inactive) | GI50 (OVCAR-5): > 100 µM (inactive) | GI50 (OVCAR-8): 30.8 µM (inactive) | GI50 (RPMI-8226): 25.5 µM (inactive) | GI50 (RXF 393): 10.2 µM (inactive) | GI50 (RXF 631): 9.75 µM (inactive) | GI50 (SF-268): 72.8 µM (inactive) | GI50 (SF-295): > 10 µM (inactive) | GI50 (SF-539): 26 µM (inactive) | GI50 (SK-MEL-28): 5.28 µM (inactive) | GI50 (SK-MEL-2): 32.1 µM (inactive) | GI50 (SK-MEL-5): 45.9 µM (inactive) | GI50 (SK-OV-3): 39.1 µM (inactive) | GI50 (SN12C): 21.2 µM (inactive) | GI50 (SNB-19): > 100 µM (inactive) | GI50 (SNB-75): 3.67 µM (inactive) | GI50 (SNB-78): 26.4 µM (inactive) | GI50 (SR): 17.1 µM (inactive) | GI50 (SW-620): 3.65 µM (inactive) | GI50 (TK-10): 34.8 µM (inactive) | GI50 (U-251): 10.4 µM (inactive) | GI50 (UACC-257): 36.9 µM (inactive) | GI50 (UACC-62): 7.87 µM (inactive) | GI50 (UO-31): 23.4 µM (inactive)
